The values that follow come from patent US20160113895A1, “Novel Use of Adapalene in Treating Esophageal Cancer and Gastrointestinal Stromal Tumor” (Biodelight Biotech Inc., priority 2013, published 2016).

Data set [1] has as its target T1, recombinant wild type human EGFR kinase domain (Homo sapiens, UniProt P00533).
T1 construct: A recombinant wild type human EGFR kinase domain expressed in Sf9 insect cells; GST; made in house; host or cells: Sf9 insect cells
As to the kind of experiment: Radiometric protein kinase enzymatic assay. The class given is biochemical. Conditions: text value (FIG. 1). The text has this: Except Tarceva® or Erlotinib which was purchased from LC Laboratories, all the screened compounds were purchased from Sigma-Aldrich. A recombinant wild type human EGFR kinase domain expressed in Sf9 insect cells as a GST-fusion protein was used in the enzymatic assay. The recombinant protein was purified by a GSH-affinity column and the purity of the protein was examined by SDS-PAGE/Coomassie staining and the identity was checked by mass spectroscopy. A radiometric protein kinase assay was used for measuring the kinase activity of the EGFR protein kinase. All the assays were performed in 96-well FlashPlates™ from PerkinElmer (Boston, Mass., USA) in a 50 µL, reaction volume. […] The reaction cocktails were incubated at 30° C. for 60 minutes. […] Incorporation of ^33Pi was determined with a microplate scintillation counter. […]
The median value of the counts in column 1 (n=8) of each assay plate was defined as “low control”. This value reflects unspecific binding of radioactivity to the plate in the absence of a protein kinase but in the presence of the substrate. […] The residual activity (in %) for each well of a particular plate was calculated by using the following formula: […]
The residual activities for each concentration and the drug IC50 values were calculated using GraphPad Prism software. […]

For data set [2], the system named is A549 implanted tumors. In words: Subcutaneous A549 xenograft model, groups 2a-2c, o.p. Particulars: for Tumor inhibition rate (%): A549, o.p. once daily, Tarceva 20 mpk; for Tumor inhibition rate (%) / Body weight change (%): NSL-8 70 mpk; for Body weight change (%): A549 tumor-bearing mice, Tarceva 20 mpk o.p. The protocol: The antitumor efficacy of the drug lead nsl-8 searched was studied using the subcutaneous xenografted A549 and HCC827 lung cancer tumor models in vivo. […] Mice were maintained in individual ventilated cages (IVC, max. 4 mice/cage) at constant temperature and humidity. Animal weights were determined three times (Monday, Wednesday and Friday) for groups 1a and 1b or two times (Monday and Thursday) for groups 2a-2c and 3a-3c animals. Animal behaviour was monitored daily.
On day 0, either 2×10^6 A549 or 2×10^6 HCC827 tumor cells in 100 μL PBS were implanted into the subcutaneous space of the left flank of all corresponding BALB/c nude and SCID mice, respectively. In the following, tumor sizes were determined by caliper measurement. Tumor sizes were calculated according to the formula W^2×Lg/2 (Lg=length and W=the perpendicular width of the tumor, L>W). On day 48 or 30, after mean tumor volumes had reached approx. 100 mm^3, the corresponding tumor-bearing animals were randomized into 2 groups of 8 (A549 model: groups 1a and 1b) or 10 animals (A549 model: groups 2a and 2b) according to tumor sizes. On day 24 or 28, after mean tumor volumes had reached approx. 100 mm^3, the corresponding tumor-bearing animals were randomized into 2 groups of 10 animals (HCC827 model: groups 3a and 3b) according to tumor sizes. […] The percentage of tumor growth inhibition (TGI) was calculated using the following formula: […]
where T and C represent the mean tumor volume of the treatment and the control group, respectively.
The solution was aliquoted into several 15 ml sterile centrifuge tubes in 650 μl quantity per tube and then stored frozen at −80° C. until use. […] Animals of group 1b received 40 mg/kg nsl-8 dosage solution once daily through i.p. route on days 48-52 and 62-66, while those of groups 2b and 3b received 70 mg/kg nsl-8 dosage solution once daily through o.p. route on days 1-14 (group 2b) and days 1-14 (group 3b), respectively (Table 4).
Groups 1a and 1b (A549 model) were terminated on day 69, while groups 2a-2c (A549 model) and 3a-3c (HCC827 model) were terminated on day 15. At necropsy, animals were killed by cervical dislocation. Primary tumor weights and volumes were determined. The tumor volume and weight were analysed using descriptive data analysis (Mean, SEM, Median). Statistical analysis of efficacy data was performed using the unpaired t-test. All the data analyses were performed using GraphPad Prism 5 from GraphPad Software, Inc., San Diego, USA.
The serum level of blood urea nitrogen (BUN) was measured for assessing the renal function while those of alanine aminotransferase (ALT) and aspartate aminotransferase (AST) were measured using Ektachem DT system (Johnson & Johnson Clinical Diagnostics) for assessing the liver function. The EDTA treated anticoagulated blood samples were also collected for making a complete peripheral blood count by using a Hematology Analyzer (Sysmex, XT-1800i).
For this study, 0.161 ml nsl-8 stock solution made in DMSO was mixed with 1.339 ml 0.9% w/v saline so that the volume of a final dosage solution prepared to feed an animal was 1.5 ml and containing 10% DMSO. Therefore, both administration routes and vehicles used in treating groups 2a-2b and 3a-3b animals were quite different from that used in treating groups 1a-1b animals.

T1 sequence (P00533 712-979 limits assumed): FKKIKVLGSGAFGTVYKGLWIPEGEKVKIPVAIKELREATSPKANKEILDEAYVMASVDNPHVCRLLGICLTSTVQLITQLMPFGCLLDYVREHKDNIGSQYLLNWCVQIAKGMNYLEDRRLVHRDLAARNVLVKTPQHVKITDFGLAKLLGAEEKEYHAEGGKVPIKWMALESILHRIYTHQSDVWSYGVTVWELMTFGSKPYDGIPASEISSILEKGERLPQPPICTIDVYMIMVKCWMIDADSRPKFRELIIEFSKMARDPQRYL

In the case of `COc1ccc(-c2ccc3cc(C(=O)O)ccc3c2)cc1C12CC3CC(CC(C3)C1)C2` [nsl-8, 6-[3-(1-adamantyl)-4-methoxyphenyl]-2-naphthalenecarboxylic acid], the IC50 in data set [1] was found to be 0.515 µM. The “cell counts of white blood cell, red blood cell, or platelet versus vehicle” value in data set [2] (A549 model, peripheral blood at end-point, nsl-8 70 mg/kg, Tarceva 20 mg/kg o.p.) was “no significant difference”. For the same compound, in data set [2] (A549 model, upon completion of the experiments), the “serum levels of BUN, ALT, and AST among treatment groups” value was “no significant difference”. The “Tumor inhibition rate (%)” value is 0% in data set [2] (Day 0); 7.1% in data set [2] (Day 3); 12.0% in data set [2] (Day 7); 17.8% in data set [2] (Day 10); 19.1% in data set [2] (Day 14). Moreover, the “Body weight change (%)” value in data set [2] (Day 0) is 0%; in data set [2] (Day 3) it was −1.9%; in data set [2] (Day 7), −1.3%; in data set [2] (Day 10), −2.6%; in data set [2] (Day 14) it was −2.0%. Further, the “decline of body weight upon completion of the experiments” value in data set [2] (group 2b, 70 mg/kg daily o.p.) was determined as 2.0%.

Usually IC50 stands for the concentration needed to halve the response being measured.
